Laboratory results published in patent US9352010B2, “Treatment of HIV-1 infection and AIDS” (The J. David Gladstone Institutes, priority 2011, dated 2016).

Key:
human monocytes = settings: LPS and ATP; cited from earlier work
CFSE-labeled CD4 T-cells = format: cell-based, human; settings: for indirect killing (loss) of resting CFSE-labeled CD4 T-cells: NL4-3-infected effector cells
Method: (A) Experimental strategy to assess indirect cell killing in HIV-1-infected human lymphoid cultures. Fresh human tonsil tissue from a single donor is processed into HLAC, and then separated into two fractions. One fraction is challenged with HIV-1 and cultured for 6 days, allowing viral spread. On day 5, the uninfected fraction is treated with AZT (5 μM) and labeled with CFSE (1 μM). On day 6, the infected and CFSE-labeled (i.e., uninfected) cultures are mixed and co-cultured in the presence of AZT. […] After 6 days of co-culturing, the number of viable CFSE-positive cells is determined by flow cytometry. (B) Flow cytometry analysis of the mixed HLACs. Indirect killing is determined by gating on live CFSE-positive cells in the mixed cultures. Effector cells are either infected or uninfected cells. […] CFSE-labeled cells mixed with uninfected or infected cells were cultured in the presence of 5 μM AZT alone or together with 250 nM AMD3100. Data represent live CFSE-positive cells 6 days after co-culture with infected or uninfected effector cells. […] The absolute numbers of viable CFSE-positive CD4 and CD8 T-cells and B cells were determined. Percentages are normalized to the number of viable CFSE-positive cells co-cultured with uninfected cells in the presence of AZT, as depicted by (*). Error bars represent standard deviations of three samples from the same donor. […] See also FIG. 3.
(§1) Human tonsil or splenic tissues from routine tonsillectomies were obtained from the National Disease Research Interchange and the Cooperative Human Tissue Network and processed as previously described (Jekle et al., 2003, J Virol 77:5846-5854). In brief, tonsils or spleen were minced, passed through a 40-μm cell strainer, and cultured in 96-well U-bottomed polystyrene plates (2×10^6 cells/well) in medium (200 μl/well) consisting of RPMI 1640 supplemented with 15% heat-inactivated fetal bovine serum, 100 μg/ml gentamicin, 200 μg/ml ampicillin, 1 mM sodium pyruvate, 1% nonessential amino acids (Mediatech), 2 mM L-glutamine, and 1% fungizone (Invitrogen). All HIV-1 infections were carried out with 20-50 ng of HIV-1 p24^gag. Cells were incubated with the virus for 12-16 h, washed extensively, and supplemented with fresh medium. After day 5, infections were monitored by measuring p24gag levels in the culture medium using a FLAQ assay (Hayden et al., 2003, AIDS 17:629-631). Infected and uninfected cultures were manipulated as described for individual experiments. In “indirect killing” assays, unless otherwise stated, drugs were used at the following concentrations: 5 μM AZT; 250 nM AMD3100; 10 μg/ml T20; 100 nM Efavirenz; 1 μM Nevirapine; 30 μM Raltegravir; 60 μM 118-D-24; 5 μM Amprenavir; 5 μM Saquinavir; 5 μM Indinavir. CFSE-labeled cells were activated with PHA (5 μg/ml) and IL-2 (20 ng/ml) 2 days before mixing with effector cells.
Uninfected cells (5×10^6/ml) were labeled with 1 μM CFSE (Molecular Probes C1157), treated with 5 μM AZT for 24 h, and co-cultured with effector cells. CFSE readily diffuses into cells, where intracellular esterases cleave the acetate groups, converting it to a fluorescent, membrane-impermeable dye.

[1] = tested on: SupT1 CD4 T leukemic cells; assay: Syncytia formation in NL4-3-infected SupT1 cells; format: cell-based; settings: 5 μM protease inhibitor, 2.5 days
Method: (A) The spinoculation procedure. (B) Flow cytometry of viable CD4 versus CD8-T-cells in HLAC three days after spinoculation in the presence of the indicated drugs. Data represent live-gated cells, based on the forward-scatter versus side-scatter profile of the complete culture. Of note, apoptotic cells were included in the analysis of caspases activity and cytokine expression (FIG. 10E, F). Drugs concentrations: AZT 5 μM; Efavirenz 100 nM; AMD3100 250 nM; T20 10 μg/ml. The data are representative results of six independent experiments with six different donors. […] (C) Highly permissive SupT1 CD4 T leukemic cells were infected with NL4-3 and cultivated for 3 days to allow substantial infection but not syncytia formation. […] After 2.5 days of additional culture, the extent of syncytia formation in each sample was evaluated by light microscopy. […] Results are representative of three independent experiments.

IL-1β = assay: Release of 17-kDa IL-1β from isolated tonsillar CD4 T-cells (ionophore stimulus); format: cell-based, human; settings: nigericin 10 μM
Method: For stimulating the processing and secretion of IL-1, CD4 T-cells were isolated from HLACs by positive selection and treated with 0.5 μM PMA ([…], Calbiochem Cat. #524400) for 6 hours at 37° C. PMA induces large intracellular stores of the 35 kDa pro-IL-1β. Cells were then washed with PBS and treated with 10 μM nigericin (Sigma, Cat. # N7143) overnight at 37° C. The potassium ionophore nigericin mediates an elecroneutral exchange of intracellular K^+ ions for extracellular protons, providing a second inflammatory stimulus, which results in the maturation and release of the bioactive 17 kDa IL-1β(Perregaux et al., 1992, J Immunol 149:1294-1303; Perregaux and Gabel, 1994, J Biol Chem 269:15195-15203).
Isolated tonsillar CD4 T-cells were treated overnight with nigericin (10 μM) to provide a second inflammatory stimulus, resulting in maturation and release of bioactive 17-kDa IL-1β. Supernatants from the cell cultures were subjected to SDS-PAGE and immunoblotting. 17-kDa IL-1β was released after treatment with nigericin, but not with calcium ionophore A23187 or the nonspecific cation ionophore monensin. Thus, while these cells are primed, they must receive the appropriate proinflammatory signal for pro-IL-1β processing and release. […]

[2] = tested on: HIV-1 reverse transcription products; assay: Taqman QPCR of HIV-1 reverse transcription products in infected CD4 T-cells; format: cell-based, human; settings: 16 hours after infection with NL4-3, versus untreated cells
Method: Fresh HLACs were washed once with PBS and resuspended with PBS containing 5 mM EDTA and 2% fetal bovine serum. CD4 T-cells were isolated from HLACs by positive selection on CD4 microbeads (Miltenyi) and cultured overnight in 96-well U-bottomed plates (1×10^6 cells/well) as described above, and AZT was added to the indicated cell samples. Next day, the rest of the drugs were added to the indicated cell samples at concentrations as described above. Cells were chilled on ice for 15 min and DNAse-treated (Ambion, 60 U/ml, 1 hour, 37° C.) NL4-3 or Δvif NL4-3 virions (200 ng/well) were added. After a 1 hour incubation with virions on ice, cells were spinoculated at 1200 g for 2 hours at 4° C., incubated at 37° C. for 2 hours, washed three times with cold PBS, and resuspended in fresh RPMI with the indicated drugs. Eight or 16 hours after spinoculation, cell pellets were frozen at −80° C. Total DNA was purified from each cell pellet with a DNAse kit (Qiagen). Primer and probe sequences used to detect reverse transcription products are provided herein. QPCR reactions were performed in triplicates in TaqMan universal PCR master mix using each primer at 3.75 μM and probe at 2.5 μM. After 15 minutes at 95° C., reactions underwent 50 cycles of 15 sec at 95° C. followed by 1 min at 60° C. in an ABI Prism 7900HT (Applied Biosystems).
Next the status of HIV-1 reverse transcription in tonsillar CD4 T-cells after infection was examined. […] Taqman-based quantitative real-time PCR (QPCR) was used to quantify the synthesis of reverse transcription products in isolated CD4 T-cells from HLAC 16 hours after infection with NL4-3. Specific QPCR primers and probes were designed (Table 1) to monitor sequential steps in reverse transcription including generation of strong-stop DNA, first template exchange (Nef), and DNA strand elongation (Env) (FIG. 10A)

[3] = tested on: CFSE-labeled spleen CD4 T-cells; assay: Indirect killing assay with CFSE-labeled human spleen cells; format: cell-based; settings: HIV-infected spleen HLAC effectors
Method: (B and C) Fresh human spleen from a single donor were processed into HLAC and assessed in indirect cell killing assay as described in FIG. 2A. Effector spleen HLAC were stimulated with PHA and IL-2 48 hours before mixing, but not during co-culturing with CFSE-labeled cells. Non-activated resting CFSE-labeled spleen cells were co-cultured with NL4-3-infected or uninfected effector cells in the presence or absence of the following drugs, AZT (5 μM), AMD3100 (250 nM), Efavirenz (100 nM), or Raltegravir (30 μM), as indicated. […] Percentages were normalized to the number of viable CFSE-positive spleen CD4 T-cells co-cultured with uninfected effectors in the presence of AZT, as depicted by (*). Error bars represent standard error of the mean for three experiments performed with three different spleen and tonsil donors.
as §1
Uninfected cells (5×10^6/ml) were labeled with 1 μM CFSE (Molecular Probes C1157), treated with 5 μM AZT for 24 h, and co-cultured with effector cells. CFSE readily diffuses into cells, where intracellular esterases cleave the acetate groups, converting it to a fluorescent, membrane-impermeable dye. […] To quantify indirect killing, mixed (CFSE-labeled+effector) cultures were washed in FACS buffer (PBS supplemented with 2 mM EDTA and 2% fetal bovine serum), stained with PE-conjugated anti-CD4, PerCP-conjugated anti-CD19, and APC-conjugated anti-CD8 (all from BD Pharmingen) and fixed in 1% paraformaldehyde. To determine the absolute numbers of the viable CFSE-labeled cells, a standard number of fluorescent beads (Flow-Count Fluorospheres, Beckman Coulter) was added to each cell-suspension sample before data acquisition. Data were collected on a FACS Calibur (BD Biosciences) and analyzed with Flowjo software (Treestar). The level of indirect killing was defined by sequential gating beginning with forward scatter versus side scatter to select live lymphocytes, subgating on the CFSE-positive population, and calculating the numbers of CD4 or CD8 T or B cells, divided by the number of fluorescent beads acquired.

ISRE-GFP H35 cells = assay: ISRE-GFP H35 reporter cells; format: cell-based, rat; settings: 1 μg transfected
Method: Hepatocyte-derived reporter ISRE-GFP H35 cells were maintained as previously described (King et al., 2007, Lab Chip 7:77-85; Patel et al., 2009, Proc Natl Acad Sci USA 106:12867-12872). For microscopic imaging, ISRE-GFP reporter H35 cells were cultured on 35 mm glass bottom culture dishes (MatTeck) and were treated with AZT (5 μM), Efavirenz (100 nM), or Raltegravir (30 μM) 12 hours before infection. Cells were then infected with 2 μg/ml of replication competent VSV-G pseudotyped NL4-3. After 48 hours incubation at 37° C., cells were fixed in 2% paraformaldehyde at 25° C. for 1 hour, washed with PBS and stained with 10 μg/ml Hoechst 33342 (Invitrogen) and 1 μg/ml 7-AAD (eBioscience) for 15 min at 25° C. Cells were washed 3 times with PBS and were analyzed with an Axio observer Z1 microscope (Zeiss) equipped with an EC Plan NEOFLUAR 10×/0.3 PHM27 objective, filter sets 38HE, 45, and 49, and an Axiocam MRM REV 3.

## CC(C)c1cc(Cl)cc(C(C)C)c1NC(=O)NS(=O)(=O)c1cccc(C(C)O)c1 (centres unmarked) [CP-412,245]
Human monocytes
  post-translational processing and secretion of IL-1β: inhibited the post-translational processing and secretion of IL-1β

## CC(C)(C)NC(=O)[C@@H]1CN(Cc2cccnc2)CCN1C[C@@H](O)C[C@@H](Cc1ccccc1)C(=O)N[C@H]1c2ccccc2C[C@H]1O [Indinavir]
CFSE-labeled CD4 T-cells
  indirect killing (loss) of resting CFSE-labeled CD4 T-cells: inhibit indirect killing
[1]
  syncytia formation / cell-cell fusion: do not block syncytia formation

## CC(C)(C)NC(=O)[C@@H]1C[C@@H]2CCCC[C@@H]2CN1C[C@@H](O)[C@H](Cc1ccccc1)NC(=O)[C@H](CC(N)=O)NC(=O)c1ccc2ccccc2n1 [Saquinavir]
CFSE-labeled CD4 T-cells
  indirect killing (loss) of resting CFSE-labeled CD4 T-cells: inhibit indirect killing
[1]
  syncytia formation / cell-cell fusion: do not block syncytia formation

## COC(=O)C[C@H](NC(=O)[C@H](C)NC(=O)[C@@H](NC(=O)[C@H](Cc1ccc(O)cc1)NC(=O)OCc1ccccc1)C(C)C)C(=O)CF [Z-YVAD]
IL-1β
  nigericin-induced IL-1β release after pre-treatment with caspase inhibitor: blocked

## CC(NC(=O)[C@H](Cc1ccccc1)NC(=O)OCc1ccccc1)C(=O)CF (some centres unmarked) [Z-FA-FMK]
CFSE-labeled CD4 T-cells; 20 μM caspase inhibitor, AZT 5 μM
  death of abortively infected CD4 T-cells with caspase inhibitors: persisted

## Cc1ccnc2c1NC(=O)c1cccnc1N2C1CC1 [nevirapine]
CFSE-labeled CD4 T-cells
  indirect killing (loss) of resting CFSE-labeled CD4 T-cells: blocked indirect killing of resting CD4 T-cells as efficiently as AMD3100

## Cc1nnc(C(=O)NC(C)(C)c2nc(C(=O)NCc3ccc(F)cc3)c(O)c(=O)n2C)o1 [raltegravir]
[2]
  reverse transcription products corresponding to strong-stop DNA: similar
CFSE-labeled CD4 T-cells
  indirect killing (loss) of resting CFSE-labeled CD4 T-cells: did not prevent abortive infection killing
[3]
  loss of CFSE-labeled spleen CD4 T-cells: did not prevent CD4 T-cell killing

## poly(I:C)
ISRE-GFP H35 cells
  ISRE-GFP reporter activation by transfected nucleic acid: elicited a comparable ISRE-GFP response

## Cc1ccc(-c2ccc3c(c2)C=C(C(=O)Nc2ccc(C[N+](C)(C)C4CCOCC4)cc2)CCC3)cc1.[Cl-] [TAK779]
CFSE-labeled CD4 T-cells; WEAU 16-8 (R5/X4)-infected effector cells
  indirect killing of CFSE-labeled CD4 T-cells: had no effect

## CC(C)c1cc(Cl)cc(C(C)C)c1NC(=O)NS(=O)(=O)c1cccc(C(C)(C)O)c1 [CP-424,174]
Human monocytes
  post-translational processing and secretion of IL-1β: inhibited the post-translational processing and secretion of IL-1β
